Where two headings read alike, the source gives them in different places.
Columns and labels:
[1] = target: T1, BRD4 (BD1) (Homo sapiens, UniProt O60885); assay: BRD4 (BD1) bromodomain binding, HTRF; settings: 2 h incubation at r.t.
T1 construct: Each member comprises two tandem bromodomains (BD1 and BD2) for recognizing the acetylated lysine residues

[2] = test system: MV-4-11 cells; assay: Inhibitory effect on MV-4-11 cells (CellTiter-Glo); assay type: cell-based; settings: Homo sapiens, read-out: MV-4-11
[3] = target: T2, BRD4 (BD2) (Homo sapiens, UniProt O60885); assay: BRD4 (BD2) bromodomain binding, HTRF; settings: 2 h incubation at r.t.
T2 construct: Each member comprises two tandem bromodomains (BD1 and BD2) for recognizing the acetylated lysine residues

[4] = MV4-11, 72 hours, CellTiter-Glo

Structure (SMILES)	IC50 [1] [nM]	IC50 [2, 4] [nM]	IC50 [3] [nM]	IC50 ([2]; MV4-11, 72 h) [nM]
CC[C@@H]1N=C(c2ccc(Cl)cc2)c2ccc(CS(=O)(=O)CC)cc2-c2cn(C)c(=O)cc21 [Compound 4047, (S)-5-ethyl-10-((ethylsulfonyl)methyl)-7-(4-chlorophenyl)-2-methyl-2,5-dihydro-3H-benzo[c]pyrido[3,4-e]azepin-3-ketone]	0.4	2	1	–
C[C@@H]1N=C(c2ccc(Cl)cc2)c2ccccc2-c2cn(C)c(=O)cc21 [Compound 4025, (S)-7-(4-chlorophenyl)-2,5-dimethyl-2,5-dihydro-3H-benzo[c]pyrido[3,4-e]azepin-3-ketone]	7	54	3	–
C[C@@H]1N=C(c2ccc(F)cc2)c2cc(F)c(N)cc2-c2cn(C)c(=O)cc21 [Compound 4070, (S)-10-amino-9-fluoro-7-(4-flurophenyl)-2,5-dimethyl-2,5-dihydro-3H-benzo[c]pyrido[3,4-e]azepin-3-ketone]	3	–	2	16
COc1ccc2c(c1)-c1cn(C)c(=O)cc1CN=C2c1ccc(F)cc1 [Compound 4019, 7-(4-fluorophenyl)-10-methoxy-2-methyl-2,5-dihydro-3H-benzo[c]pyrido[3,4-e]azepin-3-one]	10	144	37	–
CC(C)S(=O)(=O)Cc1ccc2c(c1)-c1cn(C)c(=O)cc1[C@H](C)N=C2c1ccc(F)cc1 [Compound 4044, (S)-10-((isopropylsulfone)methyl)-7-(4-flurophenyl)-2,5-dimethyl-2,5-dihydro-3H-benzo[c]pyrido[3,4-e]azepin 3-ketone]	1	7	1	–
Cn1cc2c(cc1=O)[C@H](CC(N)=O)N=C(c1ccc(F)cc1)c1ccc(CS(C)(=O)=O)cc1-2 [Compound 4014, (S)-2-(7-(4-fluorophenyl)-2-methyl-10-(methylsulfonylmethyl)-3-oxo-3,5-dihydro-2H-benzo[c]pyrido[3,4-e]azepin-5-yl)acetamide]	2	292	1	–
CCS(=O)(=O)Cc1cc2c(cc1OC)C(c1ccc(F)cc1)=N[C@@H](C)c1cc(=O)n(C)cc1-2 [Compound 4057, (S)-10-((ethylsulfonyl)methyl)-7-(4-flurophenyl)-9-methoxyl-2,5-dimethyl-2,5-dihydro-3H-benzo[c]pyrido[3,4-e]azepin-3-ketone]	2	4	1	–
CCS(=O)(=O)Cc1ccc2c(c1)-c1cn(C)c(=O)cc1[C@H](C)N=C2c1ccc(F)c(OC)c1 [Compound 4054, (S)-10-((ethylsulfonyl)methyl)-7-(4-fluoro-3-methoxylphenyl)-2,5-dimethyl-2,5-dihydro-3H-benzo[c]pyrido[3,4-e]azepin-3-ketone]	2	9	1	–
CCS(=O)(=O)Cc1ccc2c(c1)-c1cn(C)c(=O)cc1[C@H](C1CC1)N=C2c1ccc(F)cc1 [Compound 4042, (S)-5-cyclopropyl-10-((ethylsulfonyl)methyl)-7-(4-flurophenyl)-2-methyl-2,5-dihydro-3H-benzo[c]pyrido[3,4-e]azepin-3-ketone]	1	7	1	–
CCS(=O)(=O)Cc1cc2c(cn1)C(c1ccc(Cl)cc1)=NCc1cc(=O)n(C)cc1-2 [Compound 4027, 7-(4-chlorophenyl)-10-((ethylsulfonyl)methyl)-2-methyl-2,5-dihydro-3H-dipyrido[3,4-c:3′,4′-e]azepin-3-ketone]	12	128	6	–
CCS(=O)(=O)Cc1ccc2c(c1)-c1cn(C)c(=O)cc1CN=C2c1ccc(F)cc1Cl [Compound 4028, 7-(2-chloro-4-fluorophenyl)-10-((ethylsulfone)methyl)-2-methyl-2,5-dihydro-3H-benzo[c]pyrido[3,4-e]azepin-3-ketone]	22	161	2	–
CCS(=O)(=O)Nc1ccc2c(c1)-c1cn(C)c(=O)cc1CN=C2c1ccc(Cl)cc1 [Compound 4024, N-(7-(4-chlorophenyl)-2-methyl-3-oxo-3,5-dihydro-2H-benzo[c]pyrido[3,4-e]azepin-3-yl)ethanesulfonamide]	2	9	1	–

Second part, led by results:

IC50 [1] [nM]	IC50 [2, 4] [nM]	IC50 [3] [nM]	Structure (SMILES)	IC50 ([2]; MV4-11, 72 h) [nM]
2	11	1	CCS(=O)(=O)Cc1ccc2c(c1)-c1cn(C)c(=O)cc1[C@H](C)N=C2c1ccc(O)cc1 [Compound 4061, (S)-10-((ethylsulfonyl)methyl)-7-(4-hydroxylphenyl)-2,5-dimethyl-2,5-dihydro-3H-benzo[c]pyrido[3,4-e]azepin-3-ketone]	–
1	2	1	C[C@@H]1N=C(c2ccc(F)cc2)c2cc(F)c(NS(C)(=O)=O)cc2-c2cn(C)c(=O)cc21 [Compound 4074, (S)—N-(9-fluoro-7-(4-flurophenyl)-2,5-dimethyl-3-oxo-3,5-dihydro-2H-benzo[c]pyrido[3,4-e]azepin-10-yl) methylsulfamide]	–
1	0.4	1	CC[C@@H]1N=C(c2ccc(F)cc2)c2cc(F)c(NS(=O)(=O)CC)cc2-c2cn(C)c(=O)cc21 [Compound 4066, (S)—N-(5-ethyl-9-fluoro-7-(4-flurophenyl)-2-methyl-3-oxo-3,5-dihydro-2H-benzo[c]pyrido[3,4-e]azepin-10-yl)ethylsulfonamide]	–
2	114	1	CCS(=O)(=O)Cc1ccc2c(c1)-c1cn(C)c(=O)cc1[C@H](CC(N)=O)N=C2c1ccc(F)cc1 [Compound 4076, (S)-2-(10-((ethylsulfonyl)methyl)-7-(4-flurophenyl)-2-methyl-3-oxo-3,5-dihydro-2H-benzo[c]pyrido[3,4-e]azepin-5-yl)acetamide]	–
3	49	2	CCS(=O)(=O)Cc1cc2c(cc1OC)C(c1ccc(F)cc1)=NCc1cc(=O)n(C)cc1-2 [Compound 4094, 10-((Ethylsulfonyl)methyl)-7-(4-flurophenyl)-9-methoxyl-2-methyl-2,5-dihydro-3H-benzo[c]pyrido[3,4-e]azepin-3-ketone]	–
1	3	0.7	CNS(=O)(=O)C(C)c1ccc2c(c1)-c1cn(C)c(=O)cc1[C@H](C)N=C2c1ccc(F)cc1 (stereo partly drawn) [Compound 4091, 1-((S)-7-(4-flurophenyl)-2,5-dimethyl-3-oxo-3,5-dihydro-2H-benzo[c]pyrido[3,4-e]azepin-10-yl)-N-methylethane-1-sulfamide]	–
2	8	1	CCS(=O)(=O)Cc1ccc2c(c1)-c1cn(C)c(=O)cc1[C@H](C)N=C2c1ccc(F)c(O)c1 [Compound 4064, (S)-10-((ethylsulfonyl)methyl)-7-(4-fluoro-3-hydroxylphenyl)-2,5-dimethyl-2,5-dihydro-3H-benzo[c]pyrido[3,4-e]azepin-3-ketone]	–
2	19	1	CCS(=O)(=O)Cc1ccc2c(c1)-c1cn(C)c(=O)cc1[C@H](C(C)C)N=C2c1ccc(F)cc1 [Compound 4060, (S)-10-((ethylsulfonyl)methyl)-7-(4-flurophenyl)-5-isopropyl-2-methyl-2,5-dihydro-3H-benzo[c]pyrido[3,4-e]azepin-3-ketone]	–
2	1	1	CC[C@@H]1N=C(c2ccc(F)cc2)c2cc(Cl)c(NS(=O)(=O)CC)cc2-c2cn(C)c(=O)cc21 [Compound 4065, (S)—N-(9-chloro-5-ethyl-7-(4-flurophenyl)-2-methyl-3-oxo-3,5-dihydro-2H-benzo[c]pyrido[3,4-e]azepin-10-yl)ethylsulfonamide]	–
8	108	4	CCS(=O)(=O)Cc1ccc2c(c1)-c1cn(C)c(=O)cc1CN=C2c1ccc(F)c(OC)c1 [Compound 4089, 10-((ethylsulfonyl)methyl)-7-(4-fluoro-3-methoxylphenyl)-2-methyl-2,5-dihydro-3H-benzo[c]pyrido[3,4-e]azepin-3-ketone]	–
3	26	1	CCS(=O)(=O)Cc1ccc2c(c1)-c1cn(C)c(=O)cc1[C@H](CCO)N=C2c1ccc(F)cc1 [Compound 4088, (S)-10-((ethylsulfonyl)methyl)-7-(4-flurophenyl)-5-(2-hydroxyethyl)-2-methyl-2,5-dihydro-3H-benzo[c]pyrido[3,4-e]azepin-3-ketone]	–
8	31	4	CCC(=O)Nc1cc2c(cc1F)C(c1ccc(F)cc1)=N[C@@H](C)c1cc(=O)n(C)cc1-2 [Compound 4083, (S)—N-(9-fluoro-7-(4-flurophenyl)-2,5-dimethyl-3-oxo-3,5-dihydro-2H-benzo[c]pyrido[3,4-e]azepin-10-yl)propanamide]	–
5	17	0.7	CCS(=O)(=O)Cc1ccc2c(c1)-c1cn(C)c(=O)cc1N(C)N=C2c1ccc(F)cc1Cl [Compound 4093, 7-(2-chloro-4-flurophenyl)-10-((ethylsulfonyl)methyl)-2,5-dimethyl-2,5-dihydro-3H-benzo[e]pyrido[4,3-c][1,2]diazepin-3-ketone]	–
4	26	1	CCS(=O)(=O)Cc1ccc2c(c1)-c1cn(C)c(=O)cc1[C@H](C)N=C2c1ccc(F)cc1OC [Compound 4087, (S)-10-((ethylsulfonyl)methyl)-7-(4-fluoro-2-methoxylphenyl)-2,5-dimethyl-2,5-dihydro-3H-benzo[c]pyrido[3,4-e]azepin-3-ketone]	–

— patent US20190284192A1, “NITROGENOUS MACROCYCLIC COMPOUND, PREPARATION METHOD THEREFOR, PHARMACEUTICAL COMPOSITION AND APPLICATION THEREOF” (LUOXIN PHARMACEUTICAL (SHANGHAI) CO., LTD., priority 2016, published 2019)
